In US7449595B2, “Nitrosated and nitrosylated prostaglandins, compositions and methods of use” (NitroMed, Inc., priority 1999, dated 2008):

What was measured:
[1] = tested on: human corpus cavernosum tissue; test: Measurement of cGMP in human corpus cavernosum tissues (ELISA); format: cell-based; details: 5 min incubation after 30 μM Zaprinast and 100 μM IBMX, n=5
Protocol: Human corpus cavernosum specimens were obtained from impotent men at the time of penile prosthesis insertion. Tissues were maintained at 4-6° C. in M-400 solution (composition per 100 ml: mannitol, 4.19 g; KH2PO4, 0.205 g; K2HPO4.3H2O, 0.97 g; KCl, 0.112 g; NaHCO3, 0.084 g) until used. Corpus cavernosum tissues were typically used between 2 and 16 hours from extraction. Measurement of cyclic GMP in corpus cavernosal tissues was carried out as follows. Corpus cavernosal tissue strips (3×3×7 mm) were immersed in a 8 ml organ chamber containing physiological salt solution, maintained at 37° C. and aerated with 5% CO2/95% air, pH 7.4. […] Tissues were incubated for another 5 minutes then immediately frozen in liquid nitrogen and stored at -80° C. until extraction for cyclic nucleotide assay. Tissues were extracted by homogenization in 6% trichloroacetic acid followed by ether (H2O-saturated) extraction and lyophilization. cGMP levels were determined by ELISA using a kit from Cayman Chemical (Ann Arbor, Mich.). Protein concentration in the corpus cavernosum tissue was determined using the Bio-Rad Protein Assay Kit microtiter plate assay procedure (Bio-Rad, Hercules, Calif.) with bovine serum albumin as the standard. The measured concentrations of cGMP in picomoles were normalized based on milligrams of protein to provide a valid comparison between each tissue sample. […]

[2] = tested on: human corpus cavernosum tissue; test: Concentration response relaxation studies of human corpus cavernosum tissue strips contracted with phenylephrine; format: cell-based; details: compound alone, strips contracted with 0.5 μM phenylephrine, relaxation as % of 0.1 mM papaverine, n=5, read-out: EC50 (concentration required to obtain the half-maximum response) for relaxation
Protocol: Human corpus cavernosum specimens were obtained from impotent men at the time of penile prosthesis insertion. Tissues were maintained at 4-6° C. in M-400 solution (composition per 100 ml: mannitol, 4.19 g; KH2PO4, 0.205 g; K2HPO4.3H2O, 0.97 g; KCl, 0.112 g; NaHCO3, 0.084 g) until used. Corpus cavernosum tissues were typically used between 2 and 16 hours from extraction.
Concentration response relaxation studies of human corpus cavernosum tissues were conducted as follows. Corpus cavernosal tissue strips (3×3×7 mm), obtained as described in Example 2, were immersed in a 8 ml organ chamber containing physiological salt solution, maintained at 37° C. and aerated with 5% CO2/95% air, pH 7.4. Each strip was incrementally stretched to optimal isometric tension, as determined by maximal contractile responses to 1 μM phenylephrine. Relaxant responses were evaluated by adding increasing cumulative concentrations of compounds to the strips contracted with 0.5 μM phenylephrine. Relaxation responses were expressed as a percentage of total relaxation induced by the addition of 0.1 mM papaverine hydrochloride (total loss of tone) at the end of the experiment. In FIGS. 2 and 3, the data are expressed as mean±standard error. Statistical analysis were conducted using a two-factor ANOVA statistical analysis using StatView software for Apple computers.
The tissues were prepared according to Example 4. […]

| EC50 [2] [µM] | Structure (SMILES) | cGMP production compared to control ([1]; 100 μM GS-NO alone) | cGMP production compared to control ([1]; 1 μM PGE1 alone) |
| --- | --- | --- | --- |
| 2.56 ± 1.3 | N[C@@H](CCC(=O)N[C@@H](CSN=O)C(=O)NCC(=O)O)C(=O)O [GS-NO, N-(N-L-γ-glutamyl-S-Nitroso-L-cysteinyl)glycine] | increased amounts of cGMP | – |
| 0.083 ± 0.05 | CCCCC[C@H](O)/C=C/[C@H]1[C@H](O)CC(=O)[C@@H]1CCCCCCC(=O)O [PGE1, 7-(5-((1E)(3S)-3-hydroxyoct-1-enyl)(1R,4R,5R)-4-(hydroxy-2-oxocyclopentyl)heptanoic acid)] | – | did not produce a significant amount of cGMP |
